# Test results published in article PMC6472001, “Phenolic Compounds from Humulus lupulus as Natural Antimicrobial Products: New Weapons in the Fight against Methicillin Resistant Staphylococcus aureus, Leishmania mexicana and Trypanosoma brucei Strains” (Molecules, 2019).
# Experiments:
# Type in all cases: cell-based
# [1] = system: Staphylococcus warneri T12A12; experiment: First screening, agar dilution MIC
# Protocol: (§1) Clinical bacterial isolates from human samples collected in Lille (France) and some collection strains were used. The first screening step on pathogenic bacteria was carried out with crude hydro-alcoholic extracts of different hop parts (Table 1). The second screening was performed using sub-extracts of cones on Gram-positive bacteria, including methicillin-sensitive Staphylococcus aureus (MSSA) and methicillin-resistant Staphylococcus aureus […] (Table 2). These tests were carried out on Petri dishes, Mueller-Hinton Agar (MHA) (Oxoid, UK) was mixed with the plant extract solution in MeOH at 5% (solvent control: 5% MeOH). Final extract concentrations in Petri dishes ranged from 1250 to 4.9 µg/mL. A multi-headed inoculator allowed spotting bacterial strains at 10^5 CFU/mL in cysteinated Ringer (CR) solution (Merck®, France). Minimal Inhibitory Concentrations (MICs) were visually determined after 24 h of incubation at 37 °C.
# [2] = system: Escherichia coli ATCC 25922; experiment: First screening, agar dilution MIC
# Protocol: as §1
# [3] = system: Enterobacter cloacae 11053; experiment: First screening, agar dilution MIC
# Protocol: as §1
# [4] = system: Enterobacter cloacae 11051; experiment: First screening, agar dilution MIC
# Protocol: as §1
# [5] = system: Escherichia coli 8138; experiment: First screening, agar dilution MIC
# Protocol: as §1
# [6] = system: Enterobacter cloacae 11050; experiment: First screening, agar dilution MIC
# Protocol: as §1
# [7] = system: Staphylococcus epidermidis 10282; experiment: First screening, agar dilution MIC
# Protocol: as §1
# [8] = system: Proteus mirabilis 11060; experiment: First screening, agar dilution MIC
# Protocol: as §1
# [9] = system: Streptococcus agalactiae T53C2; experiment: First screening, agar dilution MIC
# Protocol: as §1
# [10] = system: Acinetobacter baumannii 9010; experiment: First screening, agar dilution MIC
# Protocol: as §1
# [11] = system: Citrobacter freundii 11042; experiment: First screening, agar dilution MIC
# Protocol: as §1
# [12] = system: Klebsiella pneumoniae 11016; experiment: First screening, agar dilution MIC
# Protocol: as §1
# [13] = system: Staphylococcus aureus 8147; experiment: First screening, agar dilution MIC
# Protocol: as §1
# [14] = system: Serratia marcescens 11057; experiment: First screening, agar dilution MIC
# Protocol: as §1
# [15] = system: Staphylococcus aureus 8146; experiment: First screening, agar dilution MIC
# Protocol: as §1
# [16] = system: Pseudomonas aeruginosa ATCC 27583; experiment: First screening, agar dilution MIC
# Protocol: as §1
# [17] = system: Enterococcus sp. 8153; experiment: First screening, agar dilution MIC
# Protocol: as §1
# [18] = system: Streptococcus dysgalactiae T46C14; experiment: First screening, agar dilution MIC
# Protocol: as §1
# [19] = system: Acinetobacter baumannii 9011; experiment: First screening, agar dilution MIC
# Protocol: as §1
# [20] = system: Citrobacter freundii 11041; experiment: First screening, agar dilution MIC
# Protocol: as §1
# [21] = system: Mycobacterium smegmatis 5003; experiment: First screening, agar dilution MIC
# Protocol: as §1
# [22] = system: Salmonella sp. 11033; experiment: First screening, agar dilution MIC
# Protocol: as §1
# [23] = system: Escherichia coli 8157; experiment: First screening, agar dilution MIC
# Protocol: as §1
# [24] = system: Stenotrophomonas maltophilia; experiment: First screening, agar dilution MIC
# Protocol: as §1
# [25] = system: Serratia marcescens 11056; experiment: First screening, agar dilution MIC
# Protocol: as §1
# [26] = system: Enterococcus faecalis C159-6; experiment: First screening, agar dilution MIC
# Protocol: as §1
# [27] = system: Staphylococcus lugdunensis T26A3; experiment: First screening, agar dilution MIC
# Protocol: as §1
# [28] = system: Klebsiella pneumoniae 11017; experiment: First screening, agar dilution MIC
# Protocol: as §1
# [29] = system: Staphylococcus epidermidis 5001; experiment: First screening, agar dilution MIC
# Protocol: as §1
# [30] = system: Streptococcus agalactiae T25-7; experiment: First screening, agar dilution MIC
# Protocol: as §1
# [31] = system: Providencia stuartii 11038; experiment: First screening, agar dilution MIC
# Protocol: as §1
# [32] = system: Corynebacterium T25-17; experiment: First screening, agar dilution MIC
# Protocol: as §1
# [33] = system: Pseudomonas aeruginosa 8131; experiment: First screening, agar dilution MIC
# Protocol: as §1
# [34] = system: Staphylococcus aureus T26A4; experiment: Second screening, agar dilution MIC
# Protocol: as §1
# [35] = system: Streptococcus agalactiae 13225; experiment: Second screening, agar dilution MIC
# Protocol: as §1
# [36] = system: Streptococcus agalactiae T38.2; experiment: Second screening, agar dilution MIC
# Protocol: as §1
# [37] = system: Staphylococcus aureus T36B1; experiment: Second screening, agar dilution MIC
# Protocol: as §1
# [38] = system: Streptococcus agalactiae 13226; experiment: Second screening, agar dilution MIC
# Protocol: as §1
# [39] = system: Staphylococcus pettenkoferi T3.3; experiment: Second screening, agar dilution MIC
# Protocol: as §1
# [40] = system: Staphylococcus aureus T25.10; experiment: Second screening, agar dilution MIC
# Protocol: as §1
# [41] = system: Staphylococcus aureus T1.1; experiment: Second screening, agar dilution MIC
# Protocol: as §1
# [42] = system: Enterococcus faecalis T39-C11; experiment: Second screening, agar dilution MIC
# Protocol: as §1
# [43] = system: Enterococcus faecalis T37A4; experiment: Second screening, agar dilution MIC
# Protocol: as §1
# [44] = system: Staphylococcus aureus 8147; experiment: Second screening, agar dilution MIC; conditions: Table 2
# Protocol: as §1
# [45] = system: Staphylococcus aureus T25.3; experiment: Second screening, agar dilution MIC
# Protocol: as §1
# [46] = system: Staphylococcus saprophyticus 08237; experiment: Second screening, agar dilution MIC
# Protocol: as §1
# [47] = system: Staphylococcus aureus T47A12; experiment: Second screening, agar dilution MIC
# Protocol: as §1
# [48] = system: Streptococcus agalactiae T40A2; experiment: Second screening, agar dilution MIC
# Protocol: as §1
# [49] = system: Staphylococcus aureus T28.1; experiment: Second screening, agar dilution MIC
# Protocol: as §1
# [50] = system: Enterococcus faecalis T26-B7; experiment: Second screening, agar dilution MIC
# Protocol: as §1
# [51] = system: Streptococcus agalactiae T25.7; experiment: Second screening, agar dilution MIC
# Protocol: as §1
# [52] = system: Staphylococcus aureus CIP 224; experiment: Second screening, agar dilution MIC
# Protocol: as §1
# [53] = system: Staphylococcus lugdunensis T26A3; experiment: Second screening, agar dilution MIC; conditions: Table 2
# Protocol: as §1
# [54] = system: Staphylococcus aureus T25.9; experiment: Second screening, agar dilution MIC
# Protocol: as §1
# [55] = system: Staphylococcus epidermidis 5001; experiment: Second screening, agar dilution MIC; conditions: Table 2
# Protocol: as §1
# [56] = system: Enterococcus faecalis T34-2; experiment: Second screening, agar dilution MIC
# Protocol: as §1
# [57] = system: Corynebacterium T25-17; experiment: Second screening, agar dilution MIC; conditions: Table 2
# Protocol: as §1
# [58] = system: Staphylococcus aureus T6.7; experiment: Second screening, agar dilution MIC
# Protocol: as §1
smiles,measurement,setting,value
"CNC(C)C1CCC(N)C(OC2C(N)CC(N)C(OC3OCC(C)(O)C(NC)C3O)C2O)O1 (stereo not shown) [GEN, Gentamicin]",Susceptibility to GEN,[1],S (Gentamicin (GEN) S ≤ 4)
same,Susceptibility to GEN,[2],S (Gentamicin (GEN) S ≤ 4)
same,Susceptibility to GEN,[3],S (Gentamicin (GEN) S ≤ 4)
same,Susceptibility to GEN,[4],R (R > 8)
same,Susceptibility to GEN,[5],S (Gentamicin (GEN) S ≤ 4)
same,Susceptibility to GEN,[6],S (Gentamicin (GEN) S ≤ 4)
same,Susceptibility to GEN,[7],S (Gentamicin (GEN) S ≤ 4)
same,Susceptibility to GEN,[8],S (Gentamicin (GEN) S ≤ 4)
same,Susceptibility to GEN,[9],S (Gentamicin (GEN) S ≤ 4)
same,Susceptibility to GEN,[10],S (Gentamicin (GEN) S ≤ 4)
same,Susceptibility to GEN,[11],S (Gentamicin (GEN) S ≤ 4)
same,Susceptibility to GEN,[12],S (Gentamicin (GEN) S ≤ 4)
same,Susceptibility to GEN,[13],S (Gentamicin (GEN) S ≤ 4)
same,Susceptibility to GEN,[14],R (R > 8)
same,Susceptibility to GEN,[15],S (Gentamicin (GEN) S ≤ 4)
same,Susceptibility to GEN,[16],R (R > 8)
same,Susceptibility to GEN,[17],R (R > 8)
same,Susceptibility to GEN,[18],S (Gentamicin (GEN) S ≤ 4)
same,Susceptibility to GEN,[19],R (R > 8)
same,Susceptibility to GEN,[20],S (Gentamicin (GEN) S ≤ 4)
same,Susceptibility to GEN,[21],S (Gentamicin (GEN) S ≤ 4)
same,Susceptibility to GEN,[22],S (Gentamicin (GEN) S ≤ 4)
same,Susceptibility to GEN,[23],S (Gentamicin (GEN) S ≤ 4)
same,Susceptibility to GEN,[24],S (Gentamicin (GEN) S ≤ 4)
same,Susceptibility to GEN,[25],S (Gentamicin (GEN) S ≤ 4)
same,Susceptibility to GEN,[26],R (R > 8)
same,Susceptibility to GEN,[27],S (Gentamicin (GEN) S ≤ 4)
same,Susceptibility to GEN,[28],S (Gentamicin (GEN) S ≤ 4)
same,Susceptibility to GEN,[29],S (Gentamicin (GEN) S ≤ 4)
same,Susceptibility to GEN,[30],R (R > 8)
same,Susceptibility to GEN,[31],S (Gentamicin (GEN) S ≤ 4)
same,Susceptibility to GEN,[32],S (Gentamicin (GEN) S ≤ 4)
same,Susceptibility to GEN,[33],S (Gentamicin (GEN) S ≤ 4)
same,Susceptibility to GEN,[34],S (Gentamicin (GEN) S ≤ 4)
same,Susceptibility to GEN,[35],S (Gentamicin (GEN) S ≤ 4)
same,Susceptibility to GEN,[36],S (Gentamicin (GEN) S ≤ 4)
same,Susceptibility to GEN,[37],S (Gentamicin (GEN) S ≤ 4)
same,Susceptibility to GEN,[38],S (Gentamicin (GEN) S ≤ 4)
same,Susceptibility to GEN,[39],S (Gentamicin (GEN) S ≤ 4)
same,Susceptibility to GEN,[40],S (Gentamicin (GEN) S ≤ 4)
same,Susceptibility to GEN,[41],S (Gentamicin (GEN) S ≤ 4)
same,Susceptibility to GEN,[42],S (Gentamicin (GEN) S ≤ 4)
same,Susceptibility to GEN,[43],R (R > 8)
same,Susceptibility to GEN,[44],S (Gentamicin (GEN) S ≤ 4)
same,Susceptibility to GEN,[45],S (Gentamicin (GEN) S ≤ 4)
same,Susceptibility to GEN,[46],S (Gentamicin (GEN) S ≤ 4)
same,Susceptibility to GEN,[47],S (Gentamicin (GEN) S ≤ 4)
same,Susceptibility to GEN,[48],S (Gentamicin (GEN) S ≤ 4)
same,Susceptibility to GEN,[49],S (Gentamicin (GEN) S ≤ 4)
same,Susceptibility to GEN,[50],R (R > 8)
same,Susceptibility to GEN,[51],I
same,Susceptibility to GEN,[52],S (Gentamicin (GEN) S ≤ 4)
same,Susceptibility to GEN,[53],S (Gentamicin (GEN) S ≤ 4)
same,Susceptibility to GEN,[54],S (Gentamicin (GEN) S ≤ 4)
same,Susceptibility to GEN,[55],S (Gentamicin (GEN) S ≤ 4)
same,Susceptibility to GEN,[56],S (Gentamicin (GEN) S ≤ 4)
same,Susceptibility to GEN,[57],S (Gentamicin (GEN) S ≤ 4)
same,Susceptibility to GEN,[58],S (Gentamicin (GEN) S ≤ 4)
